Holding throughout (format): cell-based
The test system of experiment [1] is human leukemic cells (CCRF-CEM cell line). Nature of the experiment: Cytotoxicity screen: growth inhibition of human leukemic cells. Conditions: read-out: IC₅₀ (concentration giving 50% growth inhibition). From the text:
See, e.g., Miller et al., in J. Med. Chem. Vol. 20, No. 3 409 (1977) and Sweeney, et al., in Cancer Research 38, 2886 (1978).
The compounds of the present invention represented by Formula I are cytostatic in that they inhibit the growth of human leukemic cells (CCRF-CEM cell line). Table 1 below gives the results of such testing of compounds representative of those in Formula I. In the Table, column 1 gives the example number of the compound and column 2 the IC₅₀ (concentration giving 50% growth inhibition) in mcg/ml.

The subject of another experiment is HSV-1. The experiment is described as follows: Plaque-reduction study against HSV-1. Conditions: HSV-1 plaque reduction. The method, then:
(§1) The following plaque-reduction study provides a quantitative evaluation of inhibitors of virus multiplication and establishes the antiviral activity of a representative compound of the present invention. According to this study, susceptible cells (BSC-1, Hela, MDCK, etc.) were grown in 25 cm² Falcon flasks at 37°C in Medium 199 with 5 percent inactivated fetal bovine serum (FBS), penicillin (150 units/ml) and streptomycin (150 »g/ml). When confluent monolayers were formed, the growth medium was removed and 0.3 ml of an appropriate dilution of the virus was added to each flask. After adsorption for one hour at room temperature, the infected cell sheet was overlaid with equal parts of 1 percent Agarose and 2x Medium 199, 2.5 percent FBS, penicillin, and streptomycin. The compound to be tested was dissolved in dimethyl sulfoxide (DMSO) at a concentration of 10,000 »g/ml and an aliquot of the resulting solution was diluted to the desired concentration with the agar medium mixture. Flasks were incubated at 37°C until control flasks indicated optimum plaque size of about 2 to about 10 mm. A solution containing 10 percent formalin by volume and 2 percent sodium acetate by volume was added to each flask to inactivate the virus and fix the cell sheet to the plastic surface. The plaques were counted after staining the surrounding cell areas with crystal violet. Results from duplicate flasks at each concentration were averaged and compared with control flasks. The following degrees of inhibition against HSV-1 were observed.

The next experiment has as its system HSV-2. The experiment is described as follows: Plaque-reduction study against HSV-2. Conditions: HSV-2 plaque reduction. As to the method:
as §1, with “Results from duplicate flasks at each concentration were averaged and compared with control flasks. The following degrees of inhibition against HSV-1 were observed.” left out

The subject of a further experiment is Friends leukemia virus. The experiment is described as follows: CPE inhibition in SC-1 cells infected with murine leukemia virus, XC cell overlay. Conditions: SC1, 120 h, SC-1 cells from a feral mouse, XC cells added after 5 days, read-out: IC₅₀. The method, then: The following procedure was used to establish the efficacy of a representative compound of the present invention against Friends leukemia virus. SC-1 cells from a feral mouse were seeded subconfluently at 2-5 x 10³ cells per well in 96 microwell plates with complete MEM media plus 2 mcg/ml polybrene overnight at 37°C under a carbon dioxide atmosphere. The medium was removed. The cultures were infected with a proper dilution of murine leukemia virus (50 mcl/well) and were allowed to adsorb for about two hours at room temperature. After adsorption, the virus containing medium was removed and replaced with fresh complete MEM, both with and without dilutions of the compound of Example 1, and reincubated at 37°C under carbon dioxide for 5 days or until the cells reached confluence. The medium was removed and the cells were exposed for 10 seconds to a UV germicidal light. XC cells from a Rous sarcoma virus induced rat tumor cell line at a concentration of 5-8 x 10⁴ cells/well were added to the irradiated SC-1 monolayers. The cultures were incubated at 37°C under carbon dioxide for three days until CPE occurred in the control wells. Cultures were fixed with formalin and stained with crystal violet. The results were scored as CPE inhibition.

≈ marks a conversion by molar mass, not a printed value. Where only a bound is given, the exact number is not on record here.

In the case of `Nc1nc(N)c2ncn([C@@H]3O[C@H](CO)CC3(F)F)c2n1` [Example 2, β-1-(2,6-diamino-9H-purin-9-yl)-2,3-dideoxy-2,2-difluororibose], the IC50 in experiment [1] was 1.9 µg/mL (≈ 6.64 µM). In the experiment with HSV-1 (concentration 3.1 (unit ug/ml)), this compound returned an Inhibition of 27%.
Take `Cc1cn([C@@H]2O[C@H](CO)CC2(F)F)c(=O)[nH]c1=O` [Example 5, β-1-(5-methyl-2,4-dioxo-1H,3H-pyrimidin-1-yl)-2,3-dideoxy-2,2-difluororibose]: in experiment [1], the IC50 was > 20 µg/mL. For the same compound, the Inhibition in the experiment with HSV-1 (concentration 25 (unit ug/ml)) is on record as 35%.
As for `Nc1nc2c(ncn2[C@@H]2O[C@H](CO)CC2(F)F)c(=O)[nH]1` [Example 3, β-1-(2-amino-6-oxo-9H-purin-9-yl)-2,3-dideoxy-2,2-difluororibose], in experiment [1], the IC50 amounted to 8.5 µg/mL (≈ 29.6 µM). This compound also gave an inhibition at 25 µg/mL in the experiment with HSV-2 (Human alphaherpesvirus 2, concentration 25 ug/ml) of 21%.
Turning to `Nc1ccn([C@@H]2O[C@H](CO)CC2(F)F)c(=O)n1` [Example 1, β-1-(4-Amino-2-oxo-1H-pyrimidin-1-yl)-2,3-dideoxy-2,2-difluororibose], the results for the IC50 (in experiment [1]; in the experiment with Friends leukemia virus) were 1.9 µg/mL (≈ 7.69 µM) and 6.5 µg/mL (≈ 26.3 µM), respectively. The same compound came in with an inhibition at 15 µg/mL with HSV-1 (Human alphaherpesvirus 1, concentration 15 ug/ml) of 50%.
As to `Cc1cn([C@@H]2O[C@H](CO)[C@@H](N=[N+]=[N-])C2(F)F)c(=O)[nH]c1=O` [Example 4, β-1-(5-methyl-2,4-dioxo-1H,3H-pyrimidin-1-yl)-3-azido-2,3-dideoxy-2,2-difluororibose], the IC50 in experiment [1] amounted to 23.4 µg/mL (≈ 77.2 µM). Moreover, the values for the Inhibition in the experiment with HSV-1 (concentration 25 (unit ug/ml)) and with HSV-2 (concentration 13.5 (unit ug/ml)) were 39% and 50%, respectively.

In general, Inhibition refers to the drop in the measured response relative to a control, in per cent. Low readings indicate a weak effect, high ones a strong effect. A word on the inhibition: it is the percentage by which the read-out fell short of the control. Lower therefore signals a weak effect.
